Format in all cases: functional
Assay [1] has as its system Adoxophyes orana. The assay is described as follows: Larvicidal activity against second-instar larvae of Adoxophyes orana infested soybean seedling assessed as mortality at 5 ppm measured after 7 days. As to conditions: 168 h.
For assay [2], the system named is Plutella xylostella. Kind of assay: Larvicidal activity against second-instar larvae of Plutella xylostella (diamondback moth) infested raddish seedling assessed as mortality at 3.3 ppm sprayed 2 hr prior to infestation measured after 4 days.
Assay [3] has as its system Spodoptera litura. The assay is described as follows: Larvicidal activity against third-instar larvae of Spodoptera litura infested in soybean seedling assessed as mortality at 2 ppm sprayed 6 days prior to infestation measured after 5 days.
The subject of assay [4] is Spodoptera litura. Kind of assay: Larvicidal activity against third-instar larvae of Spodoptera litura infested in soybean seedling assessed as mortality at 2 ppm sprayed 1 day prior to infestation measured after 5 days.

One may read the mortality as the share of the test organisms that died. Turning to `O=C(NC(=O)c1c(F)cccc1F)Nc1cc(Cl)c(S(=O)(=O)C(F)(F)C(F)F)cc1Cl`, in assay [1], the mortality at 5 ppm stood at 90%. Moreover, the mortality at 3.3 ppm in assay [2] was 95%. The results for the mortality at 2 ppm in assay [3] and in assay [4] were 95% and 100%, respectively.
Take `Cc1c(NC(=O)NC(=O)c2c(F)cccc2F)ccc([S+]([O-])C(F)(F)C(F)Cl)c1C` (configuration not stated): in assay [1], the mortality at 5 ppm came to 100%. The mortality at 3.3 ppm in assay [2] is 100%. For the same molecule, the mortality at 2 ppm in assay [3] and in assay [4] was 100% each time.
For the molecule `Cc1cc([S+]([O-])C(F)(F)C(F)Cl)ccc1NC(=O)NC(=O)c1c(F)cccc1F` (configuration not stated), in assay [1], the mortality at 5 ppm was determined as 100%. For the same molecule, the mortality at 3.3 ppm in assay [2] was 100%. Also, the mortality at 2 ppm in assay [3] and in assay [4] was 100% in each case.
As to `O=C(NC(=O)c1c(F)cccc1F)Nc1ccc(S(=O)(=O)C(F)(F)C(F)F)c(Cl)c1Cl`, the mortality at 5 ppm in assay [1] was determined as 100%. Moreover, the mortality at 3.3 ppm in assay [2] is 95%. In addition, the mortality at 2 ppm in assay [3] and in assay [4] was 100% throughout.
As for `Cc1cc(SC(F)(F)C(F)Cl)ccc1NC(=O)NC(=O)c1c(F)cccc1F` (configuration not stated), the mortality at 5 ppm in assay [1] was found to be 95%. Also, the mortality at 3.3 ppm in assay [2] turned out to be 100%. The mortality at 2 ppm in assay [3] and in assay [4] was 100% throughout.
On to `O=C(NC(=O)c1c(F)cccc1F)Nc1cc(Cl)c(SC(F)(F)C(F)Cl)cc1Cl` (configuration not stated), for which the mortality at 5 ppm in assay [1] was determined as 100%. In addition, the mortality at 3.3 ppm in assay [2] was determined as 100%. The mortality at 2 ppm in assay [3] and in assay [4] was 100% in each case.
Regarding `Cc1cc([S+]([O-])C(F)(F)C(F)F)ccc1NC(=O)NC(=O)c1c(F)cccc1F` (configuration not stated), the mortality at 5 ppm in assay [1] was found to be 100%. Further, in assay [2], the mortality at 3.3 ppm was determined as 100%. The mortality at 2 ppm in assay [3] and in assay [4] was 100% in each case.
In the case of `Cc1c(NC(=O)NC(=O)c2c(F)cccc2F)ccc([S+]([O-])C(F)(F)C(F)F)c1C` (configuration not stated), the mortality at 5 ppm in assay [1] was 90%. In assay [2], the mortality at 3.3 ppm was 100%. For the same molecule, the mortality at 2 ppm in assay [3] and in assay [4] was 100% throughout.
Consider `O=C(NC(=O)c1c(F)cccc1F)Nc1ccc(S(=O)(=O)C(F)(F)C(F)F)cc1Cl`, for which the mortality at 5 ppm in assay [1] turned out to be 100%. Besides, the mortality at 3.3 ppm in assay [2] came out at 95%. Besides, the mortality at 2 ppm in assay [3] and in assay [4] was 100% in each case.
Take `O=C(NC(=O)c1c(F)cccc1F)Nc1ccc([S+]([O-])C(F)(F)C(F)Cl)c(Cl)c1Cl` (configuration not stated): the mortality at 5 ppm in assay [1] is 100%. Besides, the mortality at 3.3 ppm in assay [2] was found to be 100%. For the same molecule, the mortality at 2 ppm in assay [3] and in assay [4] was 100% throughout.
As to `O=C(NC(=O)c1c(F)cccc1F)Nc1ccc(SC(F)(F)C(F)F)cc1Cl`, in assay [1], the mortality at 5 ppm came out at 100%. Besides, in assay [2], the mortality at 3.3 ppm was found to be 100%. The mortality at 2 ppm in assay [3] and in assay [4] was 100% in each case.
On to `O=C(NC(=O)c1c(F)cccc1F)Nc1ccc(SC(F)(F)C(F)F)cc1`, for which the mortality at 5 ppm in assay [1] is 5%. Besides, in assay [2], the mortality at 3.3 ppm worked out at 100%. The figures for the mortality at 2 ppm in assay [3] and in assay [4] were 20% and 55%, respectively.
The like results for `O=C(NC(=O)c1c(F)cccc1F)Nc1ccc(S(=O)(=O)C(F)(F)C(F)Cl)c(Cl)c1Cl` (configuration not stated) were, in that order, 100%, 100%, 100% and 100%.
The like results for `O=C(NC(=O)c1c(F)cccc1F)Nc1ccc(S(=O)(=O)C(F)(F)C(F)F)cc1F` were, in that order, 100%, 100%, 100% and 100%.
In the same order, the values of `Cc1c(NC(=O)NC(=O)c2c(F)cccc2F)ccc(S(=O)(=O)C(F)(F)C(F)Cl)c1C` (configuration not stated) are 100%, 100%, 100% and 100%.
For `Cc1cc(S(=O)(=O)C(F)(F)C(F)F)c(C)cc1NC(=O)NC(=O)c1c(F)cccc1F`, in assay [1], the mortality at 5 ppm was found to be 95%. For the same molecule, the mortality at 3.3 ppm in assay [2] stood at 100%. Also, the mortality at 2 ppm in assay [3] and in assay [4] was 100% in each case.
Consider `O=C(NC(=O)c1c(F)cccc1F)Nc1ccc(SC(F)(F)C(F)Cl)cc1F` (configuration not stated), for which the mortality at 5 ppm in assay [1] was determined as 100%. Also, the mortality at 3.3 ppm in assay [2] is 100%. Moreover, the mortality at 2 ppm in assay [3] and in assay [4] was 100% in each case.
With `Cc1cc([S+]([O-])C(F)(F)C(F)F)c(C)cc1NC(=O)NC(=O)c1c(F)cccc1F` (configuration not stated), the mortality at 5 ppm in assay [1] came out at 100%. In addition, in assay [2], the mortality at 3.3 ppm stood at 100%. Further, the mortality at 2 ppm in assay [3] and in assay [4] was 100% in each case.
With `O=C(NC(=O)c1c(F)cccc1F)Nc1ccc(S(=O)(=O)C(F)(F)C(F)F)c(Cl)c1`, in assay [1], the mortality at 5 ppm is 100%. The mortality at 3.3 ppm in assay [2] was determined as 80%. The mortality at 2 ppm is 35% in assay [3] and 60% in assay [4].
For the molecule `O=C(NC(=O)c1c(F)cccc1F)Nc1ccc(S(=O)(=O)C(F)(F)C(F)Cl)cc1Cl` (configuration not stated), the mortality at 5 ppm in assay [1] was 100%. Moreover, in assay [2], the mortality at 3.3 ppm is 95%. Moreover, the mortality at 2 ppm in assay [3] and in assay [4] was 100% each time.
With `Cc1cc(S(=O)(=O)C(F)(F)C(F)F)ccc1NC(=O)NC(=O)c1c(F)cccc1F`, the mortality at 5 ppm in assay [1] amounted to 100%. For the same molecule, the mortality at 3.3 ppm in assay [2] turned out to be 100%. Also, the mortality at 2 ppm in assay [3] and in assay [4] was 100% throughout.
`O=C(NC(=O)c1c(F)cccc1F)Nc1ccc(SC(F)(F)C(F)F)cc1F`: in assay [1], the mortality at 5 ppm turned out to be 80%. Moreover, in assay [2], the mortality at 3.3 ppm was 100%. Further, the mortality at 2 ppm in assay [3] and in assay [4] was 100% in each case.
Consider `Cc1c(NC(=O)NC(=O)c2c(F)cccc2F)ccc(S(=O)(=O)C(F)(F)C(F)F)c1C`, for which the mortality at 5 ppm in assay [1] worked out at 100%. The mortality at 3.3 ppm in assay [2] was 100%. For the same molecule, the mortality at 2 ppm in assay [3] and in assay [4] was 100% throughout.
`O=C(NC(=O)c1c(F)cccc1F)Nc1ccc(S(=O)(=O)C(F)(F)C(F)Br)cc1Br` (configuration not stated): the mortality at 5 ppm in assay [1] came to 85%. The mortality at 3.3 ppm in assay [2] was 20%. Moreover, the mortality at 2 ppm came out at 95% in assay [3] and 100% in assay [4].
In the case of `Cc1cc(NC(=O)NC(=O)c2c(F)cccc2F)ccc1SC(F)(F)C(F)F`, in assay [1], the mortality at 5 ppm was 0%. Besides, the mortality at 3.3 ppm in assay [2] came to 100%. The mortality at 2 ppm in assay [3] and in assay [4] was 100% in each case.
For the molecule `O=C(NC(=O)c1c(F)cccc1F)Nc1ccc([S+]([O-])C(F)(F)C(F)F)cc1` (configuration not stated), the mortality at 3.3 ppm in assay [2] was 100%. Also, the mortality at 2 ppm came to 15% in assay [3] and 5% in assay [4].
For the molecule `O=C(NC(=O)c1c(F)cccc1F)Nc1cc(Cl)c(SC(F)(F)C(F)F)cc1Cl`, the mortality at 5 ppm in assay [1] was 100%. The mortality at 3.3 ppm in assay [2] is 100%. Further, the figures for the mortality at 2 ppm in assay [3] and in assay [4] were 85% and 100%, respectively.
`Cc1c(NC(=O)NC(=O)c2c(F)cccc2F)ccc(SC(F)(F)C(F)F)c1C`: the mortality at 5 ppm in assay [1] was 100%. Besides, the mortality at 3.3 ppm in assay [2] came to 100%. For the same molecule, the mortality at 2 ppm in assay [3] and in assay [4] was 100% each time.
Turning to `O=C(NC(=O)c1c(F)cccc1F)Nc1ccc(SC(F)(F)C(F)F)c(Cl)c1Cl`, the mortality at 5 ppm in assay [1] was 100%. Besides, the mortality at 3.3 ppm in assay [2] is 100%. The mortality at 2 ppm in assay [3] and in assay [4] was 100% each time.
With `O=C(NC(=O)c1c(F)cccc1F)Nc1ccc(SC(F)(F)C(F)Cl)c(Cl)c1Cl` (configuration not stated), in assay [1], the mortality at 5 ppm was found to be 100%. Besides, in assay [2], the mortality at 3.3 ppm worked out at 95%. In addition, the mortality at 2 ppm in assay [3] and in assay [4] was 100% each time.
Turning to `O=C(NC(=O)c1c(F)cccc1F)Nc1ccc(S(=O)(=O)C(F)(F)C(F)Cl)cc1F` (configuration not stated), the mortality at 5 ppm in assay [1] turned out to be 100%. The mortality at 3.3 ppm in assay [2] was 100%. For the same molecule, the mortality at 2 ppm in assay [3] and in assay [4] was 100% throughout.
On to `O=C(NC(=O)c1c(F)cccc1F)Nc1ccc(SC(F)(F)C(F)Cl)cc1Cl` (configuration not stated), for which, in assay [1], the mortality at 5 ppm is 100%. In addition, the mortality at 3.3 ppm in assay [2] came out at 100%. Moreover, the mortality at 2 ppm in assay [3] and in assay [4] was 100% each time.
With `O=C(NC(=O)c1c(F)cccc1F)Nc1ccc(SC(F)(F)C(F)F)cc1Br`, the mortality at 5 ppm in assay [1] turned out to be 100%. Also, in assay [2], the mortality at 3.3 ppm stood at 100%. Besides, the mortality at 2 ppm in assay [3] and in assay [4] was 100% in each case.
Regarding `Cc1cc(SC(F)(F)C(F)F)c(C)cc1NC(=O)NC(=O)c1c(F)cccc1F`, the mortality at 5 ppm in assay [1] stood at 90%. Also, in assay [2], the mortality at 3.3 ppm came out at 85%. The mortality at 2 ppm in assay [3] and in assay [4] was 100% each time.
With `Cc1cc(NC(=O)NC(=O)c2c(F)cccc2F)ccc1S(=O)(=O)C(F)(F)C(F)F`, the mortality at 5 ppm in assay [1] was 25%. In assay [2], the mortality at 3.3 ppm turned out to be 100%. Besides, the values for the mortality at 2 ppm in assay [3] and in assay [4] were 60% and 70%, respectively.
In the same order, the values of `O=C(NC(=O)c1c(F)cccc1F)Nc1cc(Cl)c([S+]([O-])C(F)(F)C(F)Cl)cc1Cl` (configuration not stated) are 100%, 100%, 100% and 100%.
`O=C(NC(=O)c1c(F)cccc1F)Nc1ccc(SC(F)(F)C(F)Cl)cc1Br` (configuration not stated): in assay [1], the mortality at 5 ppm was 100%. For the same molecule, in assay [2], the mortality at 3.3 ppm was found to be 95%. For the same molecule, the mortality at 2 ppm in assay [3] and in assay [4] was 100% throughout.
As for `O=C(NC(=O)c1c(F)cccc1F)Nc1ccc(S(=O)(=O)C(F)(F)C(F)Cl)cc1` (configuration not stated), the mortality at 2 ppm in assay [3] and in assay [4] was 0% in each case.
For `O=C(NC(=O)c1c(F)cccc1F)Nc1ccc(S(=O)(=O)C(F)(F)C(F)F)cc1`, in assay [2], the mortality at 3.3 ppm is 90%. Moreover, the mortality at 2 ppm in assay [3] and in assay [4] was 0% throughout.
